Reference: paper PMC5020642, “Structural insight into the arginine-binding specificity of CASTOR1 in amino acid-dependent mTORC1 signaling” (Cell Discovery, 2016)

T1: CASTOR1 (Homo sapiens, UniProt Q8WTX7)
T1 construct: full-length, residues 1-329, C-terminal His6 tag (pET-28a), E. coli BL21(DE3), homodimer in solution; Ni-NTA and gel filtration
T1 sequence (Q8WTX7 1-329): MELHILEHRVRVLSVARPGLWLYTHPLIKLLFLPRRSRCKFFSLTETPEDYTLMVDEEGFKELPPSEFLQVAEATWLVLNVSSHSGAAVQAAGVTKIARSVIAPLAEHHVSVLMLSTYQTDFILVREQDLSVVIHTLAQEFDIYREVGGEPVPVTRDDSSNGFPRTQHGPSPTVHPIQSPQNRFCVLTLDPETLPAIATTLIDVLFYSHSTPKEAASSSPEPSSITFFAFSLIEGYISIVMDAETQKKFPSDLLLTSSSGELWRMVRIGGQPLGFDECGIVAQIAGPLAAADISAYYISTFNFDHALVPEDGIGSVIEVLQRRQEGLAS

T2: CASTOR1 (Homo sapiens, UniProt Q8WTX7, F303A)
T2 construct: full-length, residues 1-329, C-terminal His6 tag (pET-28a), E. coli BL21(DE3), homodimer in solution; Ni-NTA and gel filtration
T2 sequence (Q8WTX7 1-329 F303A): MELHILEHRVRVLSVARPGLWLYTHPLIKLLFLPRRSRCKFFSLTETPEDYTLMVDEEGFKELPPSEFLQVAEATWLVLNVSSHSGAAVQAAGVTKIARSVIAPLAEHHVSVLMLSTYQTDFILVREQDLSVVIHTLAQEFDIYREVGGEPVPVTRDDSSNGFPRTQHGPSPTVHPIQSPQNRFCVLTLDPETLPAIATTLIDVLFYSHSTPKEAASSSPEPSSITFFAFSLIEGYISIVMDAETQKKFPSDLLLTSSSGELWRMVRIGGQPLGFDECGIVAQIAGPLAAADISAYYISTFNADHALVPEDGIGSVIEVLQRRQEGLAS

T3: CASTOR1 (Homo sapiens, UniProt Q8WTX7, L113A)
T3 construct: full-length, residues 1-329, C-terminal His6 tag (pET-28a), E. coli BL21(DE3), homodimer in solution; Ni-NTA and gel filtration
T3 sequence (Q8WTX7 1-329 L113A): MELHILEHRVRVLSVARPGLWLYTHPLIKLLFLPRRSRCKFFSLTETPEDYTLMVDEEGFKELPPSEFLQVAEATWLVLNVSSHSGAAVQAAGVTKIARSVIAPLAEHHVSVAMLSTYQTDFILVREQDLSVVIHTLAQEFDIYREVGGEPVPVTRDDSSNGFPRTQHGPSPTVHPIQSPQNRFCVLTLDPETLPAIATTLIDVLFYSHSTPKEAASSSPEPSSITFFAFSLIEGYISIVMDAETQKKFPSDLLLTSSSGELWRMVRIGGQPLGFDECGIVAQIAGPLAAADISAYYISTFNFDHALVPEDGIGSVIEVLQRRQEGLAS

T4: CASTOR1 (Homo sapiens, UniProt Q8WTX7, V281A)
T4 construct: full-length, residues 1-329, C-terminal His6 tag (pET-28a), E. coli BL21(DE3), homodimer in solution; Ni-NTA and gel filtration
T4 sequence (Q8WTX7 1-329 V281A): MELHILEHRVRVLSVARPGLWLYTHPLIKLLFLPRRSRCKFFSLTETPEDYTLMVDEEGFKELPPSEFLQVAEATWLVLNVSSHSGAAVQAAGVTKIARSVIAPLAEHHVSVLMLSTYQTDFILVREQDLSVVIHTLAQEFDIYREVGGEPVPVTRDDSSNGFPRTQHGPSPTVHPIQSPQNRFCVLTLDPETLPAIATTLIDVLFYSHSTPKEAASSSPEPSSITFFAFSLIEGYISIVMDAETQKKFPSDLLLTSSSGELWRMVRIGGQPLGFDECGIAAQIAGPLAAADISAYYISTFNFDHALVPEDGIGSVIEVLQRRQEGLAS


Tests used:
[1] = target: T1, CASTOR1; assay: isothermal titration calorimetry; assay type: binding
[2] = target: T5, A^2A^2A^2A^1; assay: isothermal titration calorimetry; assay type: binding, Homo sapiens; conditions: 20 °C; 1 mM ligand titrated into 70 μM protein; single-site model
T5 construct: gene CASTOR2; one polypeptide: CASTOR2 with ACT4 replaced by ACT4 of CASTOR1 (ACT4 of CASTOR1 = residues 176-179 and 263-329); E. coli
Text: isothermal titration calorimetry on A^2A^2A^2A^1

[3] = target: T6, A^2A^1A^2A^1; assay: isothermal titration calorimetry; assay type: binding, Homo sapiens; conditions: 20 °C; 1 mM ligand titrated into 70 μM protein; single-site model
T6 construct: gene CASTOR2; one polypeptide: CASTOR2 with ACT2 and ACT4 replaced by those of CASTOR1 (CASTOR1 residues 1-5, 76-147, 176-179, 263-329); E. coli
Text: isothermal titration calorimetry on A^2A^1A^2A^1

[4] = target: T2, CASTOR1; assay: isothermal titration calorimetry; assay type: binding
Text: (§1) isothermal titration calorimetry on CASTOR1

[5] = target: T3, CASTOR1; assay: isothermal titration calorimetry; assay type: binding
Text: as §1

[6] = target: T4, CASTOR1; assay: isothermal titration calorimetry; assay type: binding
Text: as §1

[7] = target: T7, A^2A^1A^2A^2; assay: isothermal titration calorimetry; assay type: binding, Homo sapiens; conditions: 20 °C; 1 mM ligand titrated into 70 μM protein; single-site model
T7 construct: gene CASTOR2; one polypeptide: CASTOR2 with ACT2 replaced by ACT2 of CASTOR1 (ACT2 of CASTOR1 = residues 1-5 and 76-147); E. coli
Text: isothermal titration calorimetry on A^2A^1A^2A^2

[8] = target: the molecule itself; assay: SEC + other: dynamic light scattering; purified recombinant proteins in solution; CASTOR1 with and without arginine (dimerization independent of arginine); the CASTOR1-CASTOR2 complex analysed after co-purification

Row | Kd [1] | Kd [2] | Kd [3] | Kd [4] | Kd [5] | Kd [6] | Kd [7] | Molecule | stoichiometry N [8]
1 | 5.5 ± 0.4 µM | 40.2 ± 8.4 µM | 8.6 ± 1.9 µM | 17.6 ± 1.9 µM | 160 ± 23.6 µM | 25.6 ± 4.3 µM | 55 ± 11.5 µM | N=C(N)NCCC[C@H](N)C(=O)O [arginine] | –
2 | – | – | – | – | – | – | – | full-length human CASTOR1 (residues 1-329), His6-tagged (natural protein, UniProt Q8WTX7 1-329, looked up, CASTOR1, human, full length, residues 1-329; Cloned in pET-28a (NcoI/XhoI); Se-Met substituted protein was used for phasing; No removal of the His6 tag is described; also called recombinant CASTOR1; source: E. coli BL21 (DE3), purified (Ni-NTA, gel filtration on Superdex 200)) MELHILEHRVRVLSVARPGLWLYTHPLIKLLFLPRRSRCKFFSLTETPEDYTLMVDEEGFKELPPSEFLQVAEATWLVLNVSSHSGAAVQAAGVTKIARSVIAPLAEHHVSVLMLSTYQTDFILVREQDLSVVIHTLAQEFDIYREVGGEPVPVTRDDSSNGFPRTQHGPSPTVHPIQSPQNRFCVLTLDPETLPAIATTLIDVLFYSHSTPKEAASSSPEPSSITFFAFSLIEGYISIVMDAETQKKFPSDLLLTSSSGELWRMVRIGGQPLGFDECGIVAQIAGPLAAADISAYYISTFNFDHALVPEDGIGSVIEVLQRRQEGLAS | 2
3 | – | – | – | – | – | – | – | CASTOR2, His6-SUMO fusion (natural protein, human, UniProt A6NHX0 1-329, looked up, CASTOR2, human; Homodimer on its own; in the co-expressed complex with m3 it stands once (heterodimer); Purification of the co-expressed complex is said to be the same as for CASTOR1 (Ni-NTA), so the tag would be the handle there; also called His6-SUMO fused castor2; source: E. coli BL21 (DE3), purified (Ni-NTA, gel filtration); also co-expressed with untagged CASTOR1 in E. coli BL21 (DE3)) MELHILEHRLQVASVAKESIPLFTYGLIKLAFLSSKTRCKFFSLTETPEDYTIIVDEEGFLELPSSEHLSVADATWLALNVVSGGGSFSSSQPIGVTKIAKSVIAPLADQNISVFMLSTYQTDFILVRERDLPFVTHTLSSEFTILRVVNGETVAAENLGITNGFVKPKLVQRPVIHPLSSPSNRFCVTSLDPDTLPAVATLLMDVMFYSNGVKDPMATGDDCGHIRFFSFSLIEGYISLVMDVQTQQRFPSNLLFTSASGELWKMVRIGGQPLGFDECGIVAQISEPLAAADIPAYYISTFKFDHALVPEENINGVISALKVSQAEKH | 2
